In the oligonucleotide strings, read from the 5' end, every base follows the letter of its sugar. An asterisk marks phosphorothioate; unmarked linkages are phosphodiester. Other units and linkages are bracketed, terminal groups are in braces. A string of capitals states the bases alone. {NAG37} = tridentate N-acetyl-galactosamine targeting ligand, structure (NAG37)s; [invAb] = inverted abasic unit; m = 2'-O-methyl; f = 2'-fluoro
Key:
ANGPTL3 mRNA = assay: Example 11: liver ANGPTL3 mRNA by RT-qPCR in mice; format: in vivo, C57bl/6 mice
Method: To assess the dose response of ANGPTL3 RNAi agent AD05488, six- to eight-week-old female C57bl/6 mice were used. Pre-dose serum samples were taken at day −1 after a four hour fast. At day 1, each mouse was given a single subcutaneous administration of 200 μl containing the respective mg/kg dose of an ANGPTL3 RNAi agent in D5W (dextrose in 5% water), or control (D5W) with no RNAi agent, according to the dosing groups recited in Table 53:
Additionally, ANGPTL3 mRNA levels were also assessed. All of the mice from each respective group were sacrificed on day 29 after serum collection, livers were harvested, and approximately 100 mg liver samples were collected and snap-frozen in liquid nitrogen for RNA isolation.

ANGPTL3 gene = assay: Example 12: serum LDL in LDLR knockout mice; format: in vivo, LDLR KO mice; details: 3.0 mg/kg sc day 1
Source text: (§1) To evaluate the effect of RNAi agent administration in a disease model, mice having a genetic mutation for the LDL receptor (referred to herein as LDLR KO mice) were commercially obtained (The Jackson Laboratory). The LDLR KO mice are homozygous for the Ldlr^tm1Her mutation, and have elevated serum cholesterol levels, particularly when placed on a high fat diet. For three weeks prior to the onset of the study, thirty-nine (39) LDLR KO mice were placed on a high fat diet (Teklad Custom Diets TD.88137). An additional eight (8) LDLR KO mice were placed on a normal chow diet over the same three-week period. Pre-dose serum samples were taken on day −15 and day −1 after a four hour fast. At day 1, each mouse was given a single subcutaneous administration of 200 μl/30 g animal body weight containing the respective mg/kg dose of an ANGPTL3 RNAi agent in D5W (dextrose in 5% water), control (D5W) with no RNAi agent, or a control RNAi agent that included a nucleotide sequence designed to target the Hepatitis B Virus (HBV) genome. A second injection of the same formulation was administered to the animals on day 29. The dosing regimen for the study is recited in the following Table 60:
(§2) Each mouse remained on its respective diet through the duration of study. The RNAi agent tested (AD05488) included a modified sequence and an N-acetyl-galactosamine-containing targeting ligand conjugated to the 5′ terminal end of the sense strand. (See Tables 3, […] modified sequences and targeting ligand structures). The injections were performed between the skin and muscle (i.e. subcutaneous injections) into the loose skin over the neck and shoulder area. Serum was collected on days 8, 15, 22, 29 (pre-second dose), 36, 43, 50, and 57. LDLR KO mice were fasted for four hours prior to each collection. On day 15, four (4) LDLR KO mice from Groups 1, 2, and 3 (i.e., the groups being administered the high fat “Western” diet) were sacrificed after serum collection, and on day 29, an additional four (4) LDLR KO mice from Groups 1, 2, and 3 were sacrificed after serum collection, for the purpose of performing mRNA assessments.
(§3) ANGPTL3 protein levels in serum were measured by ELISA assay (R&D Systems), according to the manufacturer's recommendations. Triglycerides, total cholesterol, high-density lipoprotein (HDL), and low-density lipoprotein (LDL) in serum were measured on a Cobas® Integra 400 (Roche Diagnostics), according to the manufacturer's recommendations.
(§4) The ANGPTL3 protein levels, triglyceride levels, total cholesterol levels, HDL levels, and LDL levels for each animal were normalized. For normalization, respective levels of ANGPTL3 protein, TG, total cholesterol, HDL, or LDL for each animal at a time point was divided by the average pre-treatment level of expression in that animal (in this case the average of day −15 and day −1) to determine the ratio of expression “normalized to pre-treatment.”
(§5) Expression at a specific time point was then normalized to the D5W control group that was administered the same diet (i.e., either the high fat “Western” diet or the normal chow-fed diet) by dividing the “normalized to pre-treatment” ratio for an individual animal by the mean “normalized to pretreatment” ratio of all mice in the D5W control group on the respective same diet, resulting in expression for each time point normalized to that in the control group.

ANGPTL3 protein [1] = assay: Example 12: serum ANGPTL3 protein by ELISA in LDLR knockout mice; format: in vivo, LDLR KO mice
Source text: as §1, §2, §3, §4, §5

ANGPTL3 protein [2] = assay: Example 13: serum ANGPTL3 protein in HFCS diet-fed Rhesus monkeys; format: in vivo; details: for Avg ANGPTL3 Protein Normalized to Pre-Treatment (Fasted): 4.0 mg/kg sc on day 1 and day 29
Method: ANGPTL3 RNAi agent AD05488 was further evaluated in high-fructose corn syrup (HFCS) diet-fed Rhesus monkeys. Rhesus monkeys were placed on an HFCS diet 37 days prior to dosing. These animals were known to develop increased plasma triglycerides greater than 180 mg/dL on the HFCS diet. On day 1 and again on day 29, four (4) Rhesus monkeys were administered a subcutaneous injection containing 4.0 mg/kg of ANGPTL3 RNAi agent AD05488 formulated in saline (n=4). Two additional Rhesus monkeys were administered normal saline control.
Fasted blood samples were drawn for analysis, and serum samples were analyzed on days-8 (predose), 8, 15, 21, 29, and 36. ANGPTL3 expression levels, triglycerides, total cholesterol, high-density lipoprotein (HDL), and low-density lipoprotein (LDL) in serum were measured on a Cobas® Integra 400 (Roche Diagnostics), according to the manufacturer's recommendations.
The ANGPTL3 protein levels, triglyceride levels, total cholesterol levels, HDL levels, and LDL levels for each animal were normalized. For normalization, the level of ANGPTL3 protein, triglyceride, HDL, and total cholesterol, respectively, for each animal at a time point, was divided by the pre-treatment level of expression in that animal (in this case at day −8) to determine the ratio of expression “normalized to pre-treatment.”

[3] = day 57, two 3 mg/kg doses, LDLR KO mice on high fat Western diet

AD05488: RNAi agent duplex: antisense AM07235-AS, sense AM07234-SS (antisense mU*fA*mC*fUmGfAmUfCmAfAmAfUmAfUmGfUmUfGmAfG*mC; sense {NAG37}*[invAb]*mGmCmUmCmAmAmCmAfUfAfUmUmUmGmAmUmCmAmGmUmA*[invAb])
Avg Relative ANGPTL3 mRNA, Normalized to Control (ANGPTL3 mRNA; 0.05 mg/kg single sc day 1, Day 29): 0.798 | Avg Relative ANGPTL3 mRNA, Normalized to Control (ANGPTL3 mRNA; 0.1 mg/kg single sc day 1, Day 29): 0.563 | Avg Relative ANGPTL3 mRNA, Normalized to Control (ANGPTL3 mRNA; 0.5 mg/kg single sc day 1, Day 29): 0.277 | Avg Relative ANGPTL3 mRNA, Normalized to Control (ANGPTL3 mRNA; 1.0 mg/kg single sc day 1, Day 29): 0.123 | Avg Relative ANGPTL3 mRNA, Normalized to Control (ANGPTL3 mRNA; 2.5 mg/kg single sc day 1, Day 29): 0.036 | Avg Relative ANGPTL3 mRNA, Normalized to Control (ANGPTL3 mRNA; 5.0 mg/kg single sc day 1, Day 29): 0.038 | reduction in ANGPTL3 mRNA (ANGPTL3 mRNA; day 29, single subcutaneous dose, C57bl/6 mice): reduction | Avg LDL Normalized to Pre-Treatment and Control (Diet Matched) (ANGPTL3 gene; High Fat Diet, Day 8): 0.547 | Avg LDL Normalized to Pre-Treatment and Control (Diet Matched) (ANGPTL3 gene; High Fat Diet, Day 15): 0.476 | Avg LDL Normalized to Pre-Treatment and Control (Diet Matched) (ANGPTL3 gene; High Fat Diet, Day 22): 0.429 | Avg LDL Normalized to Pre-Treatment and Control (Diet Matched) (ANGPTL3 gene; High Fat Diet, Day 29 (pre-second dose)): 0.419 | Avg LDL Normalized to Pre-Treatment and Control (Diet Matched) (ANGPTL3 gene; Normal Diet, Day 8): 0.558 | Avg LDL Normalized to Pre-Treatment and Control (Diet Matched) (ANGPTL3 gene; Normal Diet, Day 15): 0.606 | Avg LDL Normalized to Pre-Treatment and Control (Diet Matched) (ANGPTL3 gene; Normal Diet, Day 22): 0.662 | Avg LDL Normalized to Pre-Treatment and Control (Diet Matched) (ANGPTL3 gene; Normal Diet, Day 29 (pre-second dose)): 0.563 | reductions in ANGPTL3 protein levels (ANGPTL3 protein [1]; 3.0 mg/kg on days 1 and 29 (Groups 2 and 5), LDLR KO mice): significant reductions | Avg ANGPTL3 Protein Normalized to Pre-Treatment and Control (Diet Matched) (ANGPTL3 protein [1]; 3.0 mg/kg sc day 1, High Fat Diet, Day 8): 0.013 | Avg ANGPTL3 Protein Normalized to Pre-Treatment and Control (Diet Matched) (ANGPTL3 protein [1]; 3.0 mg/kg sc day 1, High Fat Diet, Day 15): 0.009 | Avg ANGPTL3 Protein Normalized to Pre-Treatment and Control (Diet Matched) (ANGPTL3 protein [1]; 3.0 mg/kg sc day 1, High Fat Diet, Day 22): 0.011 | Avg ANGPTL3 Protein Normalized to Pre-Treatment and Control (Diet Matched) (ANGPTL3 protein [1]; 3.0 mg/kg sc day 1, High Fat Diet, Day 29 (pre-second dose)): 0.011 | Avg ANGPTL3 Protein Normalized to Pre-Treatment and Control (Diet Matched) (ANGPTL3 protein [1]; 3.0 mg/kg sc day 1, Normal Diet, Day 8): 0.042 | Avg ANGPTL3 Protein Normalized to Pre-Treatment and Control (Diet Matched) (ANGPTL3 protein [1]; 3.0 mg/kg sc day 1, Normal Diet, Day 15): 0.037 | Avg ANGPTL3 Protein Normalized to Pre-Treatment and Control (Diet Matched) (ANGPTL3 protein [1]; 3.0 mg/kg sc day 1, Normal Diet, Day 22): 0.043 | Avg ANGPTL3 Protein Normalized to Pre-Treatment and Control (Diet Matched) (ANGPTL3 protein [1]; 3.0 mg/kg sc day 1, Normal Diet, Day 29 (pre-second dose)): 0.060 | Avg ANGPTL3 Protein Normalized to Pre-Treatment and Control (Diet Matched) (ANGPTL3 protein [1]; 3.0 mg/kg sc days 1 and 29, High Fat Diet, Day 36): 0.005 | Avg ANGPTL3 Protein Normalized to Pre-Treatment and Control (Diet Matched) (ANGPTL3 protein [1]; 3.0 mg/kg sc days 1 and 29, High Fat Diet, Day 43): 0.005 | Avg ANGPTL3 Protein Normalized to Pre-Treatment and Control (Diet Matched) (ANGPTL3 protein [1]; 3.0 mg/kg sc days 1 and 29, High Fat Diet, Day 50): 0.005 | Avg ANGPTL3 Protein Normalized to Pre-Treatment and Control (Diet Matched) (ANGPTL3 protein [1]; 3.0 mg/kg sc days 1 and 29, High Fat Diet, Day 57): 0.007 | Avg ANGPTL3 Protein Normalized to Pre-Treatment and Control (Diet Matched) (ANGPTL3 protein [1]; 3.0 mg/kg sc days 1 and 29, Normal Diet, Day 36): 0.024 | Avg ANGPTL3 Protein Normalized to Pre-Treatment and Control (Diet Matched) (ANGPTL3 protein [1]; 3.0 mg/kg sc days 1 and 29, Normal Diet, Day 43): 0.024 | Avg ANGPTL3 Protein Normalized to Pre-Treatment and Control (Diet Matched) (ANGPTL3 protein [1]; 3.0 mg/kg sc days 1 and 29, Normal Diet, Day 50): 0.032 | Avg ANGPTL3 Protein Normalized to Pre-Treatment and Control (Diet Matched) (ANGPTL3 protein [1]; 3.0 mg/kg sc days 1 and 29, Normal Diet, Day 57): 0.037 | ANGPTL3 protein normalized to pre-treatment and control (diet matched) (ANGPTL3 protein [1]; [3]): 0.007 | reduction in ANGPTL3 protein levels compared to control (ANGPTL3 protein [1]; [3]): approximately 99% | Avg ANGPTL3 Protein Normalized to Pre-Treatment (Fasted) (ANGPTL3 protein [2]; Day 8): 0.229 | Avg ANGPTL3 Protein Normalized to Pre-Treatment (Fasted) (ANGPTL3 protein [2]; Day 15): 0.154 | Avg ANGPTL3 Protein Normalized to Pre-Treatment (Fasted) (ANGPTL3 protein [2]; Day 21): 0.116 | Avg ANGPTL3 Protein Normalized to Pre-Treatment (Fasted) (ANGPTL3 protein [2]; Day 29): 0.114 | Avg ANGPTL3 Protein Normalized to Pre-Treatment (Fasted) (ANGPTL3 protein [2]; Day 36): 0.064 | reduction in ANGPTL3 protein compared to pre-treatment (ANGPTL3 protein [2]; each of the measured time points, 4.0 mg/kg on days 1 and 29, HFCS diet-fed Rhesus monkeys): significant reduction

— patent publication US12729377B2, “RNAi agents and compositions for inhibiting expression of angiopoietin-like 3 (ANGPTL3), and methods of use” (Arrowhead Pharmaceuticals, Inc., priority 2017, dated 2026)
